Several values for one entry are separate records, joined by “and”; a condition that tells them apart may be missing. Equal entries are not always repeated. Where two headings read alike, the source gives them in different places.
How the values were obtained:
Settings in all cases: in vivo
[1] = test system: S. aureus strain USA300 (LAC)
[2] = test system: S. aureus strain USA300 (LAC); remark: listed apart in the source
[3] = test system: S. aureus strain USA300 (LAC); remark: listed apart in the source
[4] = test system: S. aureus strain USA300 (LAC); remark: listed apart in the source
[5] = test system: S. aureus strain USA300 (LAC); remark: listed apart in the source
[6] = test system: S. aureus strain USA300 (LAC); remark: listed apart in the source
[7] = test system: Staphylococcus aureus strain USA300 (LAC); set-up: species or system S. aureus
[8] = test system: Staphylococcus aureus strain USA300 (LAC); set-up: species or system S. aureus; remark: listed apart in the source

## CC(=O)NC[C@H]1CN(c2ccc(N3CCOCC3)c(F)c2)C(=O)O1 [linezolid]
[1]
  Cumulative survival (%) Day 0: 100%
  Cumulative survival (%) Day 1: 100%
  Cumulative survival (%) Study end: 40%
[2]
  Cumulative survival (%) Day 0: 100%
  Cumulative survival (%) Day 1: 100%
  Cumulative survival (%) Day 2: 60% and 100%
  Cumulative survival day 1: 100%
  Cumulative survival day 2: 60%
  Cumulative survival day 3: 20%
  Cumulative survival day 4: 20%
  Cumulative survival day 5: 20%
  Median survival time: 4 days and 2.5 days
  survival rate: 90%
[3]
  Cumulative survival (%) day 0, 2 h: 100%
  Cumulative survival (%) day 0, 4 h: 100%
  Cumulative survival (%) day 0, 8 h: 100%
  Cumulative survival (%) day 0, 12 h: 100%
  Cumulative survival (%) day 1: 100% and 60%
[4]
  Cumulative survival (%) Day 1: 100%
  Cumulative survival (%) Day 7: 70%
  cumulative survival at day 7: 70%
  survival rate at day 14 (study end): 70%
[5]
  CFU/g Kidney Tissue (log10), individual mouse: 0.00 and 5.95 and 3.77 and 3.21
  CFU/g Kidney Tissue (log10), mean CFU/g: 3.23
  CFU/g Lung Tissue (log10), individual mouse: 3.13 and 7.64 and 4.36 and 3.55
  CFU/g Lung Tissue (log10), mean CFU/g: 4.67
[6]
  Cumulative survival (%) Day 1: 100%
  Cumulative survival (%) Day 7: 70%
  cumulative survival at day 7: 70%
  survival rate at study end: 60%
[7]
  Average area of abscess (mm^2) Day 0: 0.0 mm^2
  Average area of abscess (mm^2) Day 1: 0.0 mm^2
  Average area of abscess (mm^2) Day 2: 6.6 mm^2
  Average area of abscess (mm^2) Day 3: 4.9 mm^2
  Average area of abscess (mm^2) Day 4: 3.7 mm^2
  mean area of skin abscess, day 1: about 0.0 mm^2
  mean area of skin abscess, day 2: ~6.6 mm^2
  mean area of skin abscess, day 3: ~4.9 mm^2
  mean area of skin abscess, day 4: ~3.7 mm^2
[8]
  Day 4 CFU/g tissue (log10), Mean CFU/g: 5.2 CFU/g tissue (log10)
  Day 4 CFU/g tissue (log10), individual mice: 5.7 CFU/g tissue (log10) and 5.2 CFU/g tissue (log10) and 6.0 CFU/g tissue (log10) and 4.5 CFU/g tissue (log10) and 4.8 CFU/g tissue (log10) and 5.1 CFU/g tissue (log10) and 5.4 CFU/g tissue (log10) and 4.9 CFU/g tissue (log10)
  Day 4 CFU/g tissue (log10), median: 5.1 CFU/g tissue (log10)
  bacterial burden in the infected area, average: about 5.2 log 10 CFU/g
